Experiments:
HeLa [1] = assay: Anticancer activity against human HeLa cells after 24 hrs by MTT assay; type: functional, cell-based
HeLa [2] = assay: Viability of human HeLa cells at 1 uM after 24 hrs by MTT assay
HeLa [3] = assay: Viability of human HeLa cells at 5 uM after 24 hrs by MTT assay
HeLa [4] = assay: Viability of human HeLa cells at 10 uM after 24 hrs by MTT assay
HeLa [5] = assay: Viability of human HeLa cells at 20 uM after 24 hrs by MTT assay
HeLa [6] = assay: Viability of human HeLa cells at 0.1 uM after 24 hrs by MTT assay

SMILES | IC50 (HeLa [1]) | viability at 1 µM (HeLa [2]) | viability at 5 µM (HeLa [3]) | viability at 10 µM (HeLa [4]) | viability at 20 µM (HeLa [5]) | viability at 0.1 µM (HeLa [6])
CC1CCC(C(C)C)C(O[C@H]2OC(=O)C(Br)=C2Sc2nnc(-c3ccc([N+](=O)[O-])cc3)s2)C1 (some centres not stated) | 0.9 µM | 47.6% | 30% | 34.5% | 24.5% | 59.2%
CC1CCC(C(C)C)C(O[C@H]2OC(=O)C(Br)=C2Sc2nnc(-c3ccccc3O)s2)C1 (some centres not stated) | 2.9 µM | 61.2% | 37.5% | 42.3% | 33.4% | 58.9%
CC1CCC(C(C)C)C(O[C@H]2OC(=O)C(Br)=C2Sc2nnc(-c3ccc(Cl)cc3)s2)C1 (some centres not stated) | 2.2 µM | 58.2% | 29.3% | 35.1% | 26.8% | 51%
CC1(C)C2CCC1(C)C(O[C@H]1OC(=O)C(Br)=C1Sc1nnc(-c3cccnc3)s1)C2 (some centres not stated) | 3.4 µM | 56.3% | 45.4% | 40.5% | 36.3% | 58.9%
CC1(C)C2CCC1(C)C(O[C@H]1OC(=O)C(Br)=C1Sc1nnc(-c3ccncc3)s1)C2 (some centres not stated) | 3 µM | 55.1% | 44.9% | 39.4% | 40.6% | 51.8%
CC1(C)C2CCC1(C)C(O[C@H]1OC(=O)C(Br)=C1Sc1nnc(-c3ccco3)s1)C2 (some centres not stated) | 1.3 µM | 51.4% | 31.1% | 28.6% | 34.3% | 50.9%
COc1ccc(-c2nnc(SC3=C(Br)C(=O)O[C@@H]3OC3CC(C)CCC3C(C)C)s2)cc1 (some centres not stated) | 3.7 µM | 55.6% | 47.1% | 35.6% | 32.9% | 56.4%

Now from value to compound, other results behind:

IC50 (HeLa [1]) | SMILES | viability at 1 µM (HeLa [2]) | viability at 5 µM (HeLa [3]) | viability at 10 µM (HeLa [4]) | viability at 20 µM (HeLa [5]) | viability at 0.1 µM (HeLa [6])
3 µM | CC1CCC(C(C)C)C(O[C@H]2OC(=O)C(Br)=C2Sc2nnc(-c3ccccc3)s2)C1 (some centres not stated) | 59.1% | 40.6% | 28.1% | 29.7% | 56.1%
1.7 µM | CC1CCC(C(C)C)C(O[C@H]2OC(=O)C(Br)=C2Sc2nnc(-c3ccco3)s2)C1 (some centres not stated) | 54.3% | 29.4% | 36.9% | 27.2% | 55.6%
5.6 µM | CC1CCC(C(C)C)C(O[C@H]2OC(=O)C(Br)=C2Sc2nnc(-c3cccnc3)s2)C1 (some centres not stated) | 59.5% | 52.3% | 32.8% | 33% | 56.4%
1.3 µM | CC1CCC(C(C)C)C(O[C@H]2OC(=O)C(Br)=C2Sc2nnc(-c3ccncc3)s2)C1 (some centres not stated) | 51.3% | 33.9% | 26.8% | 22.3% | 73.8%
2.6 µM | CC1CCC(C(C)C)C(O[C@H]2OC(=O)C(Br)=C2Sc2nnc(-c3ccc(O)cc3)s2)C1 (some centres not stated) | 59.4% | 36% | 44.4% | 36% | 60.6%
